Target: T1, Pendrin (Homo sapiens, UniProt O43511)
T1 sequence (O43511 whole entry): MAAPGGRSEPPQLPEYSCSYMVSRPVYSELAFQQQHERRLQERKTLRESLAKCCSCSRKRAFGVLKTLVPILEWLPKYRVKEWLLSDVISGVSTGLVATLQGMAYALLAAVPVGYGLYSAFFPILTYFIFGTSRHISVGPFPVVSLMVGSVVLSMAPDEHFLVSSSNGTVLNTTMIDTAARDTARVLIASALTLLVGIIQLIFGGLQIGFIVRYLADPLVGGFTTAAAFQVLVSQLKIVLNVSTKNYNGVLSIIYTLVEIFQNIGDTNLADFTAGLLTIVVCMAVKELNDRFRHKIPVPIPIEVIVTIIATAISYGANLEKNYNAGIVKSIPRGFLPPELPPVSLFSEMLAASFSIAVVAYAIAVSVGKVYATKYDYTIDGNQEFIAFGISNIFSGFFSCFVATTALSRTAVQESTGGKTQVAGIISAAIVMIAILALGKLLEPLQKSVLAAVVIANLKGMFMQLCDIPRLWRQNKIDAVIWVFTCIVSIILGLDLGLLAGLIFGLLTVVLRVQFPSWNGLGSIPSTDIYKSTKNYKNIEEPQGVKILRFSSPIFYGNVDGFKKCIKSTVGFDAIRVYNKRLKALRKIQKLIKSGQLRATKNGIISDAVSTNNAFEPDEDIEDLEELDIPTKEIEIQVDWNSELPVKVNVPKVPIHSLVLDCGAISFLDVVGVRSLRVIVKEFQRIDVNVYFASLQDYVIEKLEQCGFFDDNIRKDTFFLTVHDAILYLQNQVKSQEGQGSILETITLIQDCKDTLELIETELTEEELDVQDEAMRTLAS
Assay: Inhibition of Pendrin (unknown origin) transfected in rat FRT cells assessed as reduction in Cl-/I- ions exchange by YFP fluorescence quenching assay

`Cc1oc2ccc(OCc3ccccc3Cl)cc2c1C(=O)O` was tested, and the IC50 was 650 nM.
